The values that follow come from PubChem BioAssay AID1259407 (Chemical Carcinogenesis Research Information System (CCRIS), 2018).

This data set deals with CCRIS mutagenicity, Ames/micronucleus/aberration tests. Nature of the data set: CCRIS mutagenicity studies.
Setting [1] is: Test System: AMES SALMONELLA TYPHIMURIUM, Strain/Indicator: TA100, Metabolic Activation: NONE, Method: STANDARD PLATE.
Where [2] appears, read: Test System: AMES SALMONELLA TYPHIMURIUM, Strain/Indicator: TA98, Metabolic Activation: NONE, Method: PREINCUBATION
The mark [3] stands for this setting: Test System: AMES SALMONELLA TYPHIMURIUM, Strain/Indicator: TA100, Metabolic Activation: NONE, Method: PREINCUBATION
Where [4] appears, read: Test System: MOUSE LYMPHOMA, Strain/Indicator: L5178Y (TK+/TK-), Metabolic Activation: NONE, Method: SUSPENSION/PLATE.

Calls of active or inactive are those of the source. The rule behind the calls is not given here.

Take `C[C@H]1[C@H](O)CCC2=CC(=O)[C@]3([C@@]4(CO)CO4)O[C@@H]3[C@@]21C`: the mutagenic call under setting [1] is “active; positive” and the mutagenic call (Test System: E. COLI, Strain/Indicator: WP2 UVRA, Metabolic Activation: NONE, Method: STANDARD PLATE) was “active; positive”.
As to `O=[N+]([O-])c1ccc2oc3ccc([N+](=O)[O-])cc3c2c1`, the mutagenic call is “active; positive” (Test System: AMES SALMONELLA TYPHIMURIUM, Strain/Indicator: TA98(1,8-DNP6), Metabolic Activation: NONE, Method: PREINCUBATION); “active; positive” (Test System: AMES SALMONELLA TYPHIMURIUM, Strain/Indicator: TA98(1,8-DNP6), Metabolic Activation: NONE, Method: SUSPENSION); “active; positive” (Test System: AMES SALMONELLA TYPHIMURIUM, Strain/Indicator: TA98(1,8-DNP6), Metabolic Activation: RAT, LIVER, S-9, PCB (5%), Method: PREINCUBATION); “inactive; negative” (Test System: AMES SALMONELLA TYPHIMURIUM, Strain/Indicator: TA98(NR), Metabolic Activation: NONE, Method: PREINCUBATION); “inactive; negative” (Test System: AMES SALMONELLA TYPHIMURIUM, Strain/Indicator: TA98(NR), Metabolic Activation: NONE, Method: SUSPENSION); “active; positive” (Test System: AMES SALMONELLA TYPHIMURIUM, Strain/Indicator: TA98(NR), Metabolic Activation: RAT, LIVER, S-9 (10%), Method: PREINCUBATION). The mutagenic call was “active; positive” (Test System: AMES SALMONELLA TYPHIMURIUM, Strain/Indicator: TA98(NR), Metabolic Activation: RAT, LIVER, S-9, 3-METHYLCHOLANTHRENE (10%), Method: PREINCUBATION); “active; positive” (Test System: AMES SALMONELLA TYPHIMURIUM, Strain/Indicator: TA98(NR), Metabolic Activation: RAT, LIVER, S-9, BETA-NAPHTHOFLAVONE (10%), Method: PREINCUBATION); “active; positive” (Test System: AMES SALMONELLA TYPHIMURIUM, Strain/Indicator: TA98(NR), Metabolic Activation: RAT, LIVER, S-9, PCB (5 OR 10%), Method: PREINCUBATION); “active; positive” (Test System: AMES SALMONELLA TYPHIMURIUM, Strain/Indicator: TA98(NR), Metabolic Activation: RAT, LIVER, S-9, PHENOBARBITAL (10%), Method: PREINCUBATION); “active; positive” under setting [2]; “active; positive” (Test System: AMES SALMONELLA TYPHIMURIUM, Strain/Indicator: TA98, Metabolic Activation: NONE, Method: SUSPENSION). In addition, the mutagenic call is “active; positive” (Test System: AMES SALMONELLA TYPHIMURIUM, Strain/Indicator: TA98, Metabolic Activation: RAT, LIVER, S-9, PCB (5%), Method: PREINCUBATION); “active; positive” (Test System: AMES SALMONELLA TYPHIMURIUM, Strain/Indicator: TA98, Metabolic Activation: RAT, LIVER, S-9, PCB, Method: SUSPENSION); “inactive; negative” under setting [3]; “inactive; negative” (Test System: AMES SALMONELLA TYPHIMURIUM, Strain/Indicator: TA100, Metabolic Activation: NONE, Method: SUSPENSION); “inactive; negative” (Test System: AMES SALMONELLA TYPHIMURIUM, Strain/Indicator: TA100, Metabolic Activation: RAT, LIVER, S-9, PCB (5%), Method: PREINCUBATION); “inactive; negative” (Test System: AMES SALMONELLA TYPHIMURIUM, Strain/Indicator: TA100, Metabolic Activation: RAT, LIVER, S-9, PCB, Method: SUSPENSION).
With `CC(=O)c1c(C)c([N+](=O)[O-])c(C(C)(C)C)c([N+](=O)[O-])c1C`, the mutagenic call by setting is: (Test System: AMES SALMONELLA TYPHIMURIUM, Strain/Indicator: TA97, Metabolic Activation: HAMSTER, LIVER, S-9, AROCLOR 1254 (10 OR 30%), Method: PREINCUBATION) “inactive; negative”; (Test System: AMES SALMONELLA TYPHIMURIUM, Strain/Indicator: TA97, Metabolic Activation: NONE, Method: PREINCUBATION) “inactive; negative”; (Test System: AMES SALMONELLA TYPHIMURIUM, Strain/Indicator: TA97, Metabolic Activation: RAT, LIVER, S-9, AROCLOR 1254 (10 OR 30%), Method: PREINCUBATION) “inactive; negative”; (Test System: AMES SALMONELLA TYPHIMURIUM, Strain/Indicator: TA98, Metabolic Activation: HAMSTER, LIVER, S-9, AROCLOR 1254 (10 OR 30%), Method: PREINCUBATION) “inactive; negative”; under setting [2], “inactive; negative”; (Test System: AMES SALMONELLA TYPHIMURIUM, Strain/Indicator: TA98, Metabolic Activation: RAT, LIVER, S-9, AROCLOR 1254 (10 OR 30%), Method: PREINCUBATION) “inactive; negative”. For the same molecule, the mutagenic call (Test System: AMES SALMONELLA TYPHIMURIUM, Strain/Indicator: TA98, Metabolic Activation: RAT, LIVER, S-9, AROCLOR 1254, Method: PREINCUBATION) was “inactive; negative”; the mutagenic call (Test System: AMES SALMONELLA TYPHIMURIUM, Strain/Indicator: TA98, Metabolic Activation: RAT, LIVER, S-9, AROCLOR 1254, Method: STANDARD PLATE) was “inactive; negative”; the mutagenic call (Test System: AMES SALMONELLA TYPHIMURIUM, Strain/Indicator: TA100, Metabolic Activation: HAMSTER, LIVER, S-9, AROCLOR 1254 (10 OR 30%), Method: PREINCUBATION) is “inactive; negative”; the mutagenic call under setting [3] is “inactive; negative”; the mutagenic call (Test System: AMES SALMONELLA TYPHIMURIUM, Strain/Indicator: TA100, Metabolic Activation: RAT, LIVER, S-9, AROCLOR 1254 (10 OR 30%), Method: PREINCUBATION) is “inactive; negative”; the mutagenic call (Test System: AMES SALMONELLA TYPHIMURIUM, Strain/Indicator: TA100, Metabolic Activation: RAT, LIVER, S-9, AROCLOR 1254, Method: PREINCUBATION) is “inactive; negative”. Moreover, the mutagenic call is “inactive; negative” (Test System: AMES SALMONELLA TYPHIMURIUM, Strain/Indicator: TA100, Metabolic Activation: RAT, LIVER, S-9, AROCLOR 1254, Method: STANDARD PLATE); “inactive; negative” (Test System: AMES SALMONELLA TYPHIMURIUM, Strain/Indicator: TA1535, Metabolic Activation: HAMSTER, LIVER, S-9, AROCLOR 1254 (10 OR 30%), Method: PREINCUBATION); “inactive; negative” (Test System: AMES SALMONELLA TYPHIMURIUM, Strain/Indicator: TA1535, Metabolic Activation: NONE, Method: PREINCUBATION); “inactive; negative” (Test System: AMES SALMONELLA TYPHIMURIUM, Strain/Indicator: TA1535, Metabolic Activation: RAT, LIVER, S-9, AROCLOR 1254 (10 OR 30%), Method: PREINCUBATION); “inactive; negative” under setting [4]; “inactive; negative” (Test System: MOUSE LYMPHOMA, Strain/Indicator: L5178Y (TK+/TK-), Metabolic Activation: RAT, LIVER, S-9, AROCLOR 1242 AND AROCLOR 1254 (2:1), Method: SUSPENSION/PLATE). Besides, the mutagenic call (Test System: UDS RAT PRIMARY HEPATOCYTES, Strain/Indicator: THY INCORP, Metabolic Activation: NONE) is “inactive; negative”.
In the case of `ClC/C=C/CCl`, the mutagenic call runs as follows: (Test System: AMES SALMONELLA TYPHIMURIUM, Strain/Indicator: TA98, Metabolic Activation: HAMSTER, LIVER, S-9, AROCLOR 1254 (10%), Method: STANDARD PLATE) “active; positive”; (Test System: AMES SALMONELLA TYPHIMURIUM, Strain/Indicator: TA98, Metabolic Activation: NONE, Method: STANDARD PLATE) “active; positive”; (Test System: AMES SALMONELLA TYPHIMURIUM, Strain/Indicator: TA98, Metabolic Activation: RAT, LIVER, S-9, AROCLOR 1254 (10%), Method: STANDARD PLATE) “active; positive”; (Test System: AMES SALMONELLA TYPHIMURIUM, Strain/Indicator: TA100, Metabolic Activation: HAMSTER, LIVER, S-9, AROCLOR 1254 (10%), Method: STANDARD PLATE) “active; positive”; under setting [1], “active; positive”; (Test System: AMES SALMONELLA TYPHIMURIUM, Strain/Indicator: TA100, Metabolic Activation: RAT, LIVER, S-9, AROCLOR 1254 (10%), Method: STANDARD PLATE) “active; positive”. In addition, the mutagenic call runs as follows: under setting [4], “active; positive. reevaluation of results: inconclusive”; (Test System: MOUSE LYMPHOMA, Strain/Indicator: L5178Y (TK+/TK-), Metabolic Activation: RAT, LIVER, S-9, AROCLOR 1254, Method: SUSPENSION/PLATE) “active; positive. reevaluation of results: positive”.
